Assay results: patent publication US10632135B2, “Orally available compounds, a process for preparing the same and their uses as anti-adhesive drugs for treating E. coli induced inflammatory bowel diseases such as crohn's disease” (CENTRE NATIONAL DE LA RECHERCHE SCIENTIFIQUE, priority 2014, dated 2020)

Tests used:
[1] = system: Adherent-Invasive E. coli strain LF82 adhesion to intestinal epithelial cells T84; experiment: Adhesion of Adherent-Invasive E. coli LF82 to intestinal epithelial cells T84 in presence of monovalent compounds (pre-, co- and post-incubation); type: cell-based
Method: E. coli strain LF82 was isolated from a chronic ileal lesion of a patient with Crohn's disease (CD). Bacteria were grown routinely in Luria-Bertani (LB) broth overnight at 37° C. Intestinal epithelial cells T84 derived from colonic adenocarcinoma were maintained in an atmosphere containing 5% CO2 at 37° C. in DMEM/F12 (50/50) medium supplemented with 10% (v/v) heat-inactivated fetal calf serum (FCS), 1% L-glutamine, 100 000 U·l^−1 penicillin, 100 mg·l^−1 streptomycin, 25 μg·l^−1 amphotericin B.
T84 were seeded in 48-well plates at a concentration of 1.5×10^5 cells per well and grown for 48 h. AIEC LF82 bacteria were incubated 1 h with monovalent compounds prior the cell infection (pre-incubation protocol) or they were added simultaneously onto the cells (co-incubation protocol) in complete medium without antibiotics, containing heat inactivated fetal calf serum (FCS). Monovalent compound 10 was tested at a dose of 100; 10; 1 (and 0.1) μM, compound 5 was tested at a dose of 500; 100; 10 and 1 μM and D-mannose was tested at a dose of 10 000; 1 000; 100 or 10 μM. Cells were infected with AIEC LF82 bacteria at a multiplicity of infection (MOI) of 10 bacteria per cell for 3 h at 37° C.
For the post-incubation protocol, monovalent compounds (same doses than in the pre- and co-incubation assays) were incubated with cells for 3 h after bacterial infection. A washing step was realized before this post-incubation to eliminate non-adherent bacteria.
Monolayers were washed in phosphate-buffered saline (PBS; pH 7.2) and cells were then lysed with 1% Triton X-100 in deionized water. […] Results were expressed as percentages of residual adhesion, considering adhesion level of AIEC LF82 without mannosides treatment as 100%.
D-mannose, compounds 5 and 10 were assessed as putative inhibitors to compete the interaction of CEACAM6 expressed by T84 intestinal epithelial cells with the adhesin FimH of AIEC bacteria following three different protocols: pre-, co- and post-incubation experiments (FIG. 1).

[2] = system: HUV-EC-C, CCD-18Co, MRC-5 and PWR-1E normal cell lines; type: cell-based, Human
Method: Compounds 10 and 22′ were extemporaneously dissolved at 100 mM in water to obtain a stock solution.
The final concentrations of compounds 10 and 22′ were 100 nM, 1 μM, 10 μM, 100 μM and 1 mM within wells.
The 4 cell lines were plated at optimal density per well in 96-well plates. Plates were incubated at 37° C. for 24 hours before treatment, in drug-free culture medium.
Cell lines were then incubated for 96 hours at 37° C. under 5% CO2 with the 5 concentrations of compounds 10 or 22′ in 1:10 dilution steps. Each concentration was done in triplicate. Control cells were treated with vehicle alone (water).
The dose response for index of cytotoxicity (IC) is expressed as following: […]
IC50 represents the drug concentration required to obtain 50% of cellular cytotoxicity. The
IC50 determination values were calculated from semi-log curves.

SMILES	concentration at which a significant decrease in the bacterial adhesion level was obtained ([1]; co-incubation protocol, LF82 MOI 10, 3 h, T84 cells)	dose at which adhesion was decreased ([1]; post-incubation protocol) [mM]	concentration showing a significant inhibitory effect on the bacterial adhesion ([1]; pre-incubation protocol (bacteria incubated 1 h with compound before infection)) [µM]	cytotoxicity values of the control compound [2]
O=C[C@@H](O)[C@@H](O)[C@H](O)[C@H](O)CO [D-mannose]	1 000 μM	10	100	
CC(=O)O[C@@]12CO[C@@H]1C[C@H](O)[C@@]1(C)C(=O)[C@H](O)C3=C(C)[C@@H](OC(=O)[C@H](O)[C@@H](NC(=O)OC(C)(C)C)c4ccccc4)C[C@@](O)([C@@H](OC(=O)c4ccccc4)[C@H]21)C3(C)C [Docetaxel]				consistent with known values of inherent toxicity
